# In the NIST ThermoML archive (doi:10.1021/acs.jced.8b00403):
# ± gives the expanded uncertainty stated by the source.
# Experiment: wn = mass fraction of the nth substance listed
# Conditions: 101.33 kPa, Liquid; for mass density: Vibrating tube method; for viscosity: Concentric cylinders viscometry
smiles,measurement,setting,value
"OCCCO [propan-1,3-diol] + O",mass density,"293.15 K, w1 = 1",1053.6 ± 8 kg/m3
same,viscosity,"303.15 K, w1 = 0.1113",1.189 ± 0.36 mPa·s
same,viscosity,"303.15 K, w1 = 0.2226",1.689 ± 0.51 mPa·s
same,viscosity,"303.15 K, w1 = 0.334",2.421 ± 0.73 mPa·s
same,viscosity,"303.15 K, w1 = 0.4453",3.585 ± 1.1 mPa·s
same,viscosity,"303.15 K, w1 = 0.501",4.306 ± 1.3 mPa·s
same,viscosity,"303.15 K, w1 = 0.6123",6.724 ± 2 mPa·s
same,viscosity,"303.15 K, w1 = 0.7236",10.32 ± 3.1 mPa·s
same,viscosity,"303.15 K, w1 = 0.8349",16.26 ± 4.9 mPa·s
same,viscosity,"303.15 K, w1 = 0.9277",24.03 ± 7.2 mPa·s
same,viscosity,"303.15 K, w1 = 1",32.92 ± 9.9 mPa·s
same,mass density,"303.15 K, w1 = 0.1113",1004.1 ± 8 kg/m3
same,mass density,"303.15 K, w1 = 0.2226",1012.9 ± 8 kg/m3
same,mass density,"303.15 K, w1 = 0.334",1021.1 ± 8 kg/m3
same,mass density,"303.15 K, w1 = 0.4453",1029.5 ± 8 kg/m3
same,mass density,"303.15 K, w1 = 0.501",1033 ± 8 kg/m3
same,mass density,"303.15 K, w1 = 0.6123",1039.9 ± 8 kg/m3
same,mass density,"303.15 K, w1 = 0.7236",1044.8 ± 8 kg/m3
same,mass density,"303.15 K, w1 = 0.8349",1047.8 ± 8 kg/m3
same,mass density,"303.15 K, w1 = 0.9277",1048.5 ± 8 kg/m3
same,mass density,"303.15 K, w1 = 1",1047.4 ± 8 kg/m3
same,viscosity,"313.15 K, w1 = 0.1113",0.9825 ± 0.29 mPa·s
same,viscosity,"313.15 K, w1 = 0.2226",1.332 ± 0.4 mPa·s
same,viscosity,"313.15 K, w1 = 0.334",1.857 ± 0.56 mPa·s
same,viscosity,"313.15 K, w1 = 0.4453",2.659 ± 0.8 mPa·s
same,viscosity,"313.15 K, w1 = 0.501",3.148 ± 0.94 mPa·s
same,viscosity,"313.15 K, w1 = 0.6123",4.725 ± 1.4 mPa·s
same,viscosity,"313.15 K, w1 = 0.7236",7.184 ± 2.2 mPa·s
same,viscosity,"313.15 K, w1 = 0.8349",11.05 ± 3.3 mPa·s
same,viscosity,"313.15 K, w1 = 0.9277",16.04 ± 4.8 mPa·s
same,viscosity,"313.15 K, w1 = 1",21.79 ± 6.5 mPa·s
same,mass density,"313.15 K, w1 = 0.1113",1000.4 ± 8 kg/m3
same,mass density,"313.15 K, w1 = 0.2226",1008.3 ± 8 kg/m3
same,mass density,"313.15 K, w1 = 0.334",1016.3 ± 8 kg/m3
same,mass density,"313.15 K, w1 = 0.4453",1023.9 ± 8 kg/m3
same,mass density,"313.15 K, w1 = 0.501",1027.3 ± 8 kg/m3
same,mass density,"313.15 K, w1 = 0.6123",1033.8 ± 8 kg/m3
same,mass density,"313.15 K, w1 = 0.7236",1038.6 ± 8 kg/m3
same,mass density,"313.15 K, w1 = 0.8349",1041.5 ± 8 kg/m3
same,mass density,"313.15 K, w1 = 0.9277",1042.2 ± 8 kg/m3
same,mass density,"313.15 K, w1 = 1",1041.1 ± 8 kg/m3
same,viscosity,"323.15 K, w1 = 0.1113",0.7887 ± 0.24 mPa·s
same,viscosity,"323.15 K, w1 = 0.2226",1.076 ± 0.32 mPa·s
same,viscosity,"323.15 K, w1 = 0.334",1.465 ± 0.44 mPa·s
same,viscosity,"323.15 K, w1 = 0.4453",2.051 ± 0.62 mPa·s
same,viscosity,"323.15 K, w1 = 0.501",2.401 ± 0.72 mPa·s
same,viscosity,"323.15 K, w1 = 0.6123",3.522 ± 1.1 mPa·s
same,viscosity,"323.15 K, w1 = 0.7236",5.219 ± 1.6 mPa·s
same,viscosity,"323.15 K, w1 = 0.8349",7.801 ± 2.3 mPa·s
same,viscosity,"323.15 K, w1 = 0.9277",11.15 ± 3.3 mPa·s
same,viscosity,"323.15 K, w1 = 1",15 ± 4.5 mPa·s
same,mass density,"323.15 K, w1 = 0.1113",996.2 ± 8 kg/m3
same,mass density,"323.15 K, w1 = 0.2226",1003.5 ± 8 kg/m3
same,mass density,"323.15 K, w1 = 0.334",1010.8 ± 8 kg/m3
same,mass density,"323.15 K, w1 = 0.4453",1018.1 ± 8 kg/m3
same,mass density,"323.15 K, w1 = 0.501",1021.3 ± 8 kg/m3
same,mass density,"323.15 K, w1 = 0.6123",1027.4 ± 8 kg/m3
same,mass density,"323.15 K, w1 = 0.7236",1032.1 ± 8 kg/m3
same,mass density,"323.15 K, w1 = 0.8349",1035 ± 8 kg/m3
same,mass density,"323.15 K, w1 = 0.9277",1035.8 ± 8 kg/m3
same,mass density,"323.15 K, w1 = 1",1034.8 ± 8 kg/m3
same,viscosity,"333.15 K, w1 = 0.1113",0.6769 ± 0.2 mPa·s
same,viscosity,"333.15 K, w1 = 0.2226",0.8845 ± 0.27 mPa·s
same,viscosity,"333.15 K, w1 = 0.334",1.194 ± 0.36 mPa·s
same,viscosity,"333.15 K, w1 = 0.4453",1.641 ± 0.49 mPa·s
same,viscosity,"333.15 K, w1 = 0.501",1.885 ± 0.57 mPa·s
same,viscosity,"333.15 K, w1 = 0.6123",2.698 ± 0.81 mPa·s
same,viscosity,"333.15 K, w1 = 0.7236",3.9 ± 1.2 mPa·s
same,viscosity,"333.15 K, w1 = 0.8349",5.713 ± 1.7 mPa·s
same,viscosity,"333.15 K, w1 = 0.9277",8.023 ± 2.4 mPa·s
same,viscosity,"333.15 K, w1 = 1",10.72 ± 3.2 mPa·s
same,mass density,"333.15 K, w1 = 0.1113",991.1 ± 8 kg/m3
same,mass density,"333.15 K, w1 = 0.2226",998.3 ± 8 kg/m3
same,mass density,"333.15 K, w1 = 0.334",1005.2 ± 8 kg/m3
same,mass density,"333.15 K, w1 = 0.4453",1011.8 ± 8 kg/m3
same,mass density,"333.15 K, w1 = 0.501",1014.8 ± 8 kg/m3
same,mass density,"333.15 K, w1 = 0.6123",1020.9 ± 8 kg/m3
same,mass density,"333.15 K, w1 = 0.7236",1025.4 ± 8 kg/m3
same,mass density,"333.15 K, w1 = 0.8349",1028.3 ± 8 kg/m3
same,mass density,"333.15 K, w1 = 0.9277",1029.3 ± 8 kg/m3
same,mass density,"333.15 K, w1 = 1",1028.4 ± 8 kg/m3
same,viscosity,"343.15 K, w1 = 0.1113",0.5651 ± 0.17 mPa·s
same,viscosity,"343.15 K, w1 = 0.2226",0.7245 ± 0.22 mPa·s
same,viscosity,"343.15 K, w1 = 0.334",0.9821 ± 0.29 mPa·s
same,viscosity,"343.15 K, w1 = 0.4453",1.301 ± 0.39 mPa·s
same,viscosity,"343.15 K, w1 = 0.501",1.512 ± 0.45 mPa·s
same,viscosity,"343.15 K, w1 = 0.6123",2.123 ± 0.64 mPa·s
same,viscosity,"343.15 K, w1 = 0.7236",3.01 ± 0.9 mPa·s
same,viscosity,"343.15 K, w1 = 0.8349",4.303 ± 1.3 mPa·s
same,viscosity,"343.15 K, w1 = 0.9277",5.933 ± 1.8 mPa·s
same,viscosity,"343.15 K, w1 = 1",7.855 ± 2.4 mPa·s
same,mass density,"343.15 K, w1 = 0.1113",985.3 ± 8 kg/m3
same,mass density,"343.15 K, w1 = 0.2226",992.4 ± 8 kg/m3
same,mass density,"343.15 K, w1 = 0.334",999.3 ± 8 kg/m3
same,mass density,"343.15 K, w1 = 0.4453",1005.3 ± 8 kg/m3
same,mass density,"343.15 K, w1 = 0.501",1008.4 ± 8 kg/m3
same,mass density,"343.15 K, w1 = 0.6123",1014.1 ± 8 kg/m3
same,mass density,"343.15 K, w1 = 0.7236",1018.5 ± 8 kg/m3
same,mass density,"343.15 K, w1 = 0.8349",1021.5 ± 8 kg/m3
same,mass density,"343.15 K, w1 = 0.9277",1022.6 ± 8 kg/m3
same,mass density,"343.15 K, w1 = 1",1021.9 ± 8 kg/m3
same,viscosity,"353.15 K, w1 = 0.1113",0.4871 ± 0.15 mPa·s
same,viscosity,"353.15 K, w1 = 0.2226",0.6668 ± 0.2 mPa·s
same,viscosity,"353.15 K, w1 = 0.334",0.8548 ± 0.26 mPa·s
same,viscosity,"353.15 K, w1 = 0.4453",1.09 ± 0.33 mPa·s
same,viscosity,"353.15 K, w1 = 0.501",1.21 ± 0.36 mPa·s
same,viscosity,"353.15 K, w1 = 0.6123",1.731 ± 0.52 mPa·s
same,viscosity,"353.15 K, w1 = 0.7236",2.423 ± 0.73 mPa·s
same,viscosity,"353.15 K, w1 = 0.8349",3.317 ± 1 mPa·s
same,viscosity,"353.15 K, w1 = 0.9277",4.515 ± 1.4 mPa·s
same,viscosity,"353.15 K, w1 = 1",5.916 ± 1.8 mPa·s
same,mass density,"353.15 K, w1 = 0.1113",978.6 ± 8 kg/m3
same,mass density,"353.15 K, w1 = 0.2226",986.3 ± 8 kg/m3
same,mass density,"353.15 K, w1 = 0.334",992.6 ± 8 kg/m3
same,mass density,"353.15 K, w1 = 0.4453",998.5 ± 8 kg/m3
same,mass density,"353.15 K, w1 = 0.501",1001.2 ± 8 kg/m3
same,mass density,"353.15 K, w1 = 0.6123",1006.8 ± 8 kg/m3
same,mass density,"353.15 K, w1 = 0.7236",1011.7 ± 8 kg/m3
same,mass density,"353.15 K, w1 = 0.8349",1014.4 ± 8 kg/m3
same,mass density,"353.15 K, w1 = 0.9277",1015.8 ± 8 kg/m3
same,mass density,"353.15 K, w1 = 1",1015.3 ± 8 kg/m3
